Measurements as given in PubChem BioAssay AID1963976 (Molecular Pharmacology Branch, DTP, NCI, 2024).

System: 435261-313-R-J1-PDC tumor spheroid viability
Assay: Anticancer human tumor 435261-313-R-J1-PDC patient-derived colon adenocarcinoma cell line growth inhibition [PI3K]
Settings: spheroids with HUVEC and MSC; for IC50: curve of first compound; for viability, T/C: stronger effect = lower value; active = viability on the fitted dose curve at most 10% of control; inactive = the rest
Summary of the method: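 Combination activity was assessed by viability in multicellular tumor spheroids carrying HUVEC and MSC components. Agents were tested with PI3K inhibitors from a Cmax-based top dose (or 10 microM) downward in half-log increments.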

[1] = second compound 0.0316 µM, first compound 0.0316 µM
[2] = second compound 0.0316 µM, first compound 0.1 µM
[3] = second compound 0.0316 µM, first compound 0.316 µM
[4] = second compound 0.0316 µM, first compound 1 µM
[5] = second compound 0.0316 µM, first compound 3.16 µM
[6] = second compound 0.0316 µM, first compound 10 µM
[7] = second compound 0.1 µM, first compound 0.0316 µM
[8] = second compound 0.1 µM, first compound 0.1 µM
[9] = second compound 0.1 µM, first compound 0.316 µM
[10] = second compound 0.1 µM, first compound 1 µM
[11] = second compound 0.1 µM, first compound 3.16 µM
[12] = second compound 0.1 µM, first compound 10 µM
[13] = second compound 0.316 µM, first compound 0.0316 µM
[14] = second compound 0.316 µM, first compound 0.1 µM
[15] = second compound 0.316 µM, first compound 0.316 µM
[16] = second compound 0.316 µM, first compound 1 µM
[17] = second compound 0.316 µM, first compound 3.16 µM
[18] = second compound 0.316 µM, first compound 10 µM
[19] = second compound 1 µM, first compound 0.0316 µM
[20] = second compound 1 µM, first compound 0.1 µM
[21] = second compound 1 µM, first compound 0.316 µM
[22] = second compound 1 µM, first compound 1 µM
[23] = second compound 1 µM, first compound 3.16 µM
[24] = second compound 1 µM, first compound 10 µM
[25] = second compound 3.16 µM, first compound 0.0316 µM
[26] = second compound 3.16 µM, first compound 0.1 µM
[27] = second compound 10 µM, first compound 0.0316 µM
[28] = second compound 10 µM, first compound 0.1 µM
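Also: spheroids exposed to compounds for 7 days.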

CC(C)NCC(C(=O)N1CCN(c2ncnc3c2C(C)CC3O)CC1)c1ccc(Cl)cc1 (centres undefined) + COc1c(OCCCN2CCOCC2)ccc2c3n(c(=NC(=O)c4cnc(N)nc4)nc12)CCN3
active: viability, T/C [13] 8.02% | viability, T/C [14] 10% | viability, T/C [15] 8.48% | viability, T/C [16] 7.53% | viability, T/C [17] 6.85% | viability, T/C [18] 3.75% | viability, T/C [19] 3.46% | viability, T/C [20] 4.26% | viability, T/C [21] 3.88% | viability, T/C [22] 3.78% | viability, T/C [23] 3.18% | viability, T/C [24] 1.67%
< 31.6 nM: IC50 (second compound 0.0316 µM) | IC50 (second compound 0.1 µM) | IC50 (second compound 0.316 µM) | IC50 (second compound 1 µM)
inactive: viability, T/C (second compound 0.00316 µM, first compound 0.0316 µM) 77.5% | viability, T/C (second compound 0.00316 µM, first compound 0.1 µM) 57.4% | viability, T/C (second compound 0.00316 µM, first compound 0.316 µM) 67.4% | viability, T/C (second compound 0.00316 µM, first compound 1 µM) 45% | viability, T/C (second compound 0.00316 µM, first compound 3.16 µM) 25.9% | viability, T/C (second compound 0.00316 µM, first compound 10 µM) 18.1% | viability, T/C (second compound 0.01 µM, first compound 0.0316 µM) 35.5% | viability, T/C (second compound 0.01 µM, first compound 0.1 µM) 72.5% | viability, T/C (second compound 0.01 µM, first compound 0.316 µM) 53.8% | viability, T/C (second compound 0.01 µM, first compound 1 µM) 45.8% | viability, T/C (second compound 0.01 µM, first compound 3.16 µM) 37.2% | viability, T/C (second compound 0.01 µM, first compound 10 µM) 22.3% | viability, T/C [1] 29% | viability, T/C [2] 24.9% | viability, T/C [3] 40.3% | viability, T/C [4] 17.9% | viability, T/C [5] 17.2% | viability, T/C [6] 13.7% | viability, T/C [7] 16.9% | viability, T/C [8] 13.9% | viability, T/C [9] 18.2% | viability, T/C [10] 14.3% | viability, T/C [11] 14.1% | viability, T/C [12] 8.48%
664 nM: IC50 (second compound 0.01 µM)
765 nM: IC50 (second compound 0.00316 µM)

CC(Cn1ccc(-c2ccc(C#N)c(Cl)c2)n1)NC(=O)c1cc(C(C)O)[nH]n1 (centres undefined) + Cc1nc(NC(=O)N2CCCC2C(N)=O)sc1-c1ccnc(C(C)(C)C(F)(F)F)c1
> 10000 nM: IC50 (second compound 0.0316 µM) | IC50 (second compound 0.1 µM)
active: viability, T/C [27] 9.77% | viability, T/C [28] 6.96% | viability, T/C (second compound 10 µM, first compound 0.316 µM) 8.76% | viability, T/C (second compound 10 µM, first compound 1 µM) 9.85% | viability, T/C (second compound 10 µM, first compound 3.16 µM) 10.7% | viability, T/C (second compound 10 µM, first compound 10 µM) 6%
< 31.6 nM: IC50 (second compound 0.316 µM) | IC50 (second compound 1 µM) | IC50 (second compound 3.16 µM) | IC50 (second compound 10 µM)
inactive: viability, T/C [1] 107% | viability, T/C [2] 71.6% | viability, T/C [3] 83.6% | viability, T/C [4] 84.8% | viability, T/C [5] 101% | viability, T/C [6] 106% | viability, T/C [7] 68.3% | viability, T/C [8] 70.4% | viability, T/C [9] 71.3% | viability, T/C [10] 72.2% | viability, T/C [11] 66.3% | viability, T/C [12] 73.7% | viability, T/C [13] 37.6% | viability, T/C [14] 54.1% | viability, T/C [15] 37.3% | viability, T/C [16] 50.9% | viability, T/C [17] 63.7% | viability, T/C [18] 49.4% | viability, T/C [19] 24.6% | viability, T/C [20] 36.8% | viability, T/C [21] 36.3% | viability, T/C [22] 34.2% | viability, T/C [23] 38.6% | viability, T/C [24] 31.6% | viability, T/C [25] 17.4% | viability, T/C [26] 17.7% | viability, T/C (second compound 3.16 µM, first compound 0.316 µM) 15.4% | viability, T/C (second compound 3.16 µM, first compound 1 µM) 17.9% | viability, T/C (second compound 3.16 µM, first compound 3.16 µM) 18.8% | viability, T/C (second compound 3.16 µM, first compound 10 µM) 20.1%

CC(=O)c1c(C)c2cnc(Nc3ccc(N4CCNCC4)cn3)nc2n(C2CCCC2)c1=O + CC(Nc1ncnc2nc[nH]c12)c1cc2cccc(Cl)c2c(=O)n1-c1ccccc1
34.5 nM: IC50 (second compound 10 µM)
> 100 nM: IC50 (second compound 0.0316 µM) | IC50 (second compound 0.1 µM) | IC50 (second compound 0.316 µM) | IC50 (second compound 1 µM) | IC50 (second compound 3.16 µM)
inactive: viability, T/C (second compound 0.0316 µM, first compound 0.000316 µM) 101% | viability, T/C (second compound 0.0316 µM, first compound 0.001 µM) 125% | viability, T/C (second compound 0.0316 µM, first compound 0.00316 µM) 74.8% | viability, T/C (second compound 0.0316 µM, first compound 0.01 µM) 94% | viability, T/C [1] 107% | viability, T/C [2] 84.1% | viability, T/C (second compound 0.1 µM, first compound 0.000316 µM) 77.4% | viability, T/C (second compound 0.1 µM, first compound 0.001 µM) 84% | viability, T/C (second compound 0.1 µM, first compound 0.00316 µM) 94.5% | viability, T/C (second compound 0.1 µM, first compound 0.01 µM) 101% | viability, T/C [7] 106% | viability, T/C [8] 64.9% | viability, T/C (second compound 0.316 µM, first compound 0.000316 µM) 105% | viability, T/C (second compound 0.316 µM, first compound 0.001 µM) 72.7% | viability, T/C (second compound 0.316 µM, first compound 0.00316 µM) 101% | viability, T/C (second compound 0.316 µM, first compound 0.01 µM) 90.1% | viability, T/C [13] 119% | viability, T/C [14] 69% | viability, T/C (second compound 1 µM, first compound 0.000316 µM) 81.7% | viability, T/C (second compound 1 µM, first compound 0.001 µM) 57.1% | viability, T/C (second compound 1 µM, first compound 0.00316 µM) 56.6% | viability, T/C (second compound 1 µM, first compound 0.01 µM) 92.3% | viability, T/C [19] 86.6% | viability, T/C [20] 62% | viability, T/C (second compound 3.16 µM, first compound 0.000316 µM) 52.9% | viability, T/C (second compound 3.16 µM, first compound 0.001 µM) 79% | viability, T/C (second compound 3.16 µM, first compound 0.00316 µM) 40.8% | viability, T/C (second compound 3.16 µM, first compound 0.01 µM) 63.1% | viability, T/C [25] 63.3% | viability, T/C [26] 41.3% | viability, T/C (second compound 10 µM, first compound 0.000316 µM) 44.5% | viability, T/C (second compound 10 µM, first compound 0.001 µM) 54% | viability, T/C (second compound 10 µM, first compound 0.00316 µM) 48.2% | viability, T/C (second compound 10 µM, first compound 0.01 µM) 56.1% | viability, T/C [27] 54.6% | viability, T/C [28] 32.2%

CC(Nc1ncnc2nc[nH]c12)c1cc2cccc(Cl)c2c(=O)n1-c1ccccc1 (centres undefined)
inactive: viability, T/C (compound 1 µM) 77.1% [middle of 7 runs] | viability, T/C (compound 3.16 µM) 70.9% [middle of 7 runs]

CC1(C)CCC(CN2CCN(c3ccc(C(=O)NS(=O)(=O)c4ccc(NCC5CCOCC5)c([N+](=O)[O-])c4)c(Oc4cnc5[nH]ccc5c4)c3)CC2)=C(c2ccc(Cl)cc2)C1
inactive: viability, T/C (compound 3.16 µM) 107% [middle of 4 runs]
